Test [1] concerns REL-A (p65) nuclear translocation in HeLa cells. The test is described as follows: REL-A (p65) nuclear translocation assay in HeLa cells, TNF-α stimulated (classical NF-kB signaling), high content imaging. It is filed as cell-based. As to conditions: Homo sapiens, HeLa, compound 4.5 h, then 10 ng/mL TNF-α for 30 minutes, read-out: REL-A HeLa Transloc Assay (IC50). The procedure: (§1) Several assays were developed to profile the cellular activities of NIK inhibitors.
(§2) (2) A second set of cell assay are used to define the selectivity of NIK inhibitors toward inhibition of classical vs. non-classical NF-kB signaling and rely on quantification of the nuclear translocation of p52 (NF-kB2) and REL-A (p65) using high content cellular imaging. For the p52 (non-classical NF-kB signaling) nuclear translocation assay, HeLa cells are treated with different concentrations of compounds (0.2% DMSO final) in medium containing 10% fetal bovine serum and then stimulated with 100 ng/mL of an anti-lymphotoxin beta receptor antibody (R&D Systems) for 5 hours. In the REL-A nuclear translocation assay, HeLa cells are incubated with compounds (0.2% DMSO final) for 4.5 hours in medium containing 10% fetal bovine serum before stimulating them with 10 ng/mL tumor necrosis factor (TNF)-α (R&D Systems) for 30 minutes. Cells are fixed with 4% paraformaldehyde, permeabilized by adding 0.1% Triton X-100 in phosphate buffered saline, and then are incubated with either 2 ug/mL anti-p52 antibody (Millipore) or 400 ng/mL anti-REL-A (p65) antibody (Santa Cruz Biotechnology). Finally, the cells are incubated with an Alexa488-labeled secondary antibody (Invitrogen) and DRAQ5 DNA stain (Biostatus). Imaging is carried out using an Opera reader (Perkin Elmer) and data are analyzed with the aid of Acapella software (Perkin Elmer). The p52 or REL-Atranslocation into the nucleus is quantified by the ratio of the nuclear to cytoplasmic signal intensity. […] The compounds in listed in Table 1 have the corresponding inhibitory value (IC50 in micromolar) for NIK p52 Translocation Assay as set forth in Table 2.
(§3) The compounds in listed in Table 1 have the corresponding inhibitory values (IC50 in micromolar) for the Translocation Assays as set forth in Table 2.

The target of test [2] is T1, nuclear factor-kappa B (NF-kB)-inducing kinase (NIK) (Homo sapiens, UniProt Q99558).
T1 construct: made in house; host or cells: baculovirus-infected insect cells
T1 sequence (Q99558 whole entry): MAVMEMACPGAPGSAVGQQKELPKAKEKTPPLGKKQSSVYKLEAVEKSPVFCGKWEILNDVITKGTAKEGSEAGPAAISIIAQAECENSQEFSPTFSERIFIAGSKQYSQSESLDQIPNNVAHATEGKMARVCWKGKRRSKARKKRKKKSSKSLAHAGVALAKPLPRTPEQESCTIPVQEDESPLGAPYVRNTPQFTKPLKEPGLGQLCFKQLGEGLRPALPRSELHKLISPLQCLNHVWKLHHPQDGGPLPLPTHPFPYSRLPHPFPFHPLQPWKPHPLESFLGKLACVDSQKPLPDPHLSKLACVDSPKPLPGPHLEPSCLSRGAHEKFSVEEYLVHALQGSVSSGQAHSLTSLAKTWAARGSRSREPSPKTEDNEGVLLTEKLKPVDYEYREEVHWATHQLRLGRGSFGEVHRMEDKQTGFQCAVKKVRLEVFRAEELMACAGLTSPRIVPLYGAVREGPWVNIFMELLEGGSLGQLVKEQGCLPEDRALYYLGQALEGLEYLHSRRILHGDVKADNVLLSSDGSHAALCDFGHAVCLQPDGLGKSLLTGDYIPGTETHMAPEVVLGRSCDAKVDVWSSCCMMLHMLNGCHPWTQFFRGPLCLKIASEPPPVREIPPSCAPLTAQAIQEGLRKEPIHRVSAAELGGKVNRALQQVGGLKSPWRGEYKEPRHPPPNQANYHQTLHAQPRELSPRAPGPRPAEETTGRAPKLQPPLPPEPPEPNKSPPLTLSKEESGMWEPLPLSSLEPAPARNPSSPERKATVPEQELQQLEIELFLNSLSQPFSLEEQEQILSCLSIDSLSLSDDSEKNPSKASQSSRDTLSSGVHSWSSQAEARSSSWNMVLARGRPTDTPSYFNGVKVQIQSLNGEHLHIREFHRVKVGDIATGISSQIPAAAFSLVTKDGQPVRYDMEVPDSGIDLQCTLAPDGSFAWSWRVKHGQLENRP
The experiment in a line: NIK enzyme inhibition assay (Transcreener ADP fluorescence polarization, NIK ADP-FP). It is filed as biochemical. For orientation: Fluorescence polarisation rises when a labelled molecule tumbles more slowly, as on binding a larger partner.

Test [3] relates to p52 (NF-kB2) nuclear translocation in HeLa cells. The test is described as follows: p52 (NF-kB2) nuclear translocation assay in HeLa cells, anti-lymphotoxin beta receptor antibody stimulated (non-classical NF-kB signaling), high content imaging. It is filed as cell-based. As to conditions: Homo sapiens, 100 ng/mL anti-lymphotoxin beta receptor antibody for 5 hours, read-out: p52 HeLa Transloc Assay (IC50). The procedure:
as §1, §2, §3

With `CN1CCC(O)(C#Cc2cccc(-c3nc(C(N)=O)cn4ccnc34)c2)C1=O` (stereo in doubt) [Example 45, 8-(3-[2-[(3S)-3-hydroxy-1-methyl-2-oxopyrrolidin-3-yl]ethynyl]phenyl)imidazo [1,2-a]pyrazine-6-carboxamide], the IC50 (commonly the midpoint of a concentration-inhibition curve) in test [1] was more than 20000 nM; in test [3] it was 122 nM. Besides, the Ki (as a rule, the dissociation constant of the complex between target and ligand, obtained from inhibition or displacement) in test [2] is 0.39 nM.
As to `CN1CC[C@@](O)(C#Cc2cccc(-c3cccc(C(N)=O)n3)c2)C1=O` [Example 1, 6-[3-[2-[(3R)-3-hydroxy-1-methyl-2-oxo-pyrrolidin-3-yl]ethynyl]phenyl]pyridine-2-carboxamide], the IC50 in test [1] was more than 20000 nM; in test [3], 93.2 nM.
In the case of `CN1CC[C@@](O)(C#Cc2cccc(-c3nc(C(N)=O)cc(N4CCOCC4)n3)c2)C1=O` [Example 2, 2-[3-[2-[(3R)-3-hydroxy-1-methyl-2-oxo-pyrrolidin-3-yl]ethynyl]phenyl]-6-morpholino-pyrimidine-4-carboxamide], the half-inhibitory concentration (IC50) in test [1] was more than 20000 nM; in test [3], 101 nM. Also, the inhibition constant (Ki) in test [2] came to 1.73 nM.
As to `CN1CC[C@@](O)(C#Cc2cccc(-c3ccnc(C(N)=O)n3)c2)C1=O` [Example 3, 4-[3-[2-[(3R)-3-hydroxy-1-methyl-2-oxo-pyrrolidin-3-yl]ethynyl]phenyl]pyrimidine-2-carboxamide], the IC50 in test [1] is more than 20000 nM; in test [3] it was 674 nM.
Turning to `CN1CC[C@@](O)(C#Cc2cccc(-c3nc(C(N)=O)c4ccccc4n3)c2)C1=O` [Example 4, 2-[3-[2-[(3R)-3-hydroxy-1-methyl-2-oxo-pyrrolidin-3-yl]ethynyl]phenyl]quinazoline-4-carboxamide], the figures for the IC50 in test [1] and in test [3] were more than 20000 nM and 31.9 nM, respectively. This compound had a Ki in test [2] of 0.05 nM.
As for `CN1CC[C@@](O)(C#Cc2cccc(-c3nc(C(N)=O)cc(N4CCCC4)n3)c2)C1=O` [Example 5, 2-[3-[2-[(3R)-3-hydroxy-1-methyl-2-oxo-pyrrolidin-3-yl]ethynyl]phenyl]-6-pyrrolidin-1-yl-pyrimidine-4-carboxamide], the 50% inhibitory concentration (IC50) is more than 20000 nM in test [1] and 122 nM in test [3]. In test [2], the affinity corresponds to a Ki of 0.8 nM.
Regarding `CN1CC[C@@](O)(C#Cc2cccc(-c3nc(C(N)=O)cc(N(C)C)n3)c2)C1=O` [Example 6, 6-(dimethylamino)-2-[3-[2-[(3R)-3-hydroxy-1-methyl-2-oxo-pyrrolidin-3-yl]ethynyl]phenyl] pyrimidine-4-carboxamide], the figures for the half-inhibitory concentration (IC50) in test [1] and in test [3] were more than 20000 nM and 108 nM, respectively. Moreover, in test [2], affinity was put at a Ki of 0.83 nM.
For the compound `CN1CC[C@@](O)(C#Cc2cccc(-c3nc(C(N)=O)cc(N4CC(F)(F)C4)n3)c2)C1=O` [Example 8, 6-(3,3-difluoroazetidin-1-yl)-2-[3-[2-[(3R)-3-hydroxy-1-methyl-2-oxo-pyrrolidin-3-yl]ethynyl]phenyl]pyrimidine-4-carboxamide], the IC50 in test [1] was more than 20000 nM; in test [3], 211 nM. For the same compound, the inhibitory constant (Ki) in test [2] amounted to 2.35 nM.
Consider `CN1CC[C@@](O)(C#Cc2cccc(-c3nc(NC4CC4)cc(C(N)=O)n3)c2)C1=O` [Example 9, 6-(cyclopropylamino)-2-[3-[2-[(3R)-3-hydroxy-1-methyl-2-oxo-pyrrolidin-3-yl]ethynyl]phenyl] pyrimidine-4-carboxamide], for which the IC50 was more than 20000 nM in test [1] and 270 nM in test [3]. Besides, the inhibition constant (Ki) in test [2] turned out to be 1.24 nM.
As to `COCCN(C)c1cc(C(N)=O)nc(-c2cccc(C#C[C@]3(O)CCN(C)C3=O)c2)n1` [Example 10, 2-[3-[2-[(3R)-3-hydroxy-1-methyl-2-oxo-pyrrolidin-3-yl]ethynyl]phenyl]-6-[2-methoxyethyl(methyl)amino] pyrimidine-4-carboxamide], the results for the 50% inhibitory concentration (IC50) in test [1] and in test [3] were more than 20000 nM and 266 nM, respectively. The inhibition constant Ki in test [2] came to 1.17 nM.
`COc1cc(C(N)=O)nc(-c2cccc(C#C[C@]3(O)CCN(C)C3=O)c2)n1` [Example 29, 2-[3-[2-[(3R)-3-hydroxy-1-methyl-2-oxo-pyrrolidin-3-yl]ethynyl]phenyl]-6-methoxy-pyrimidine-4-carboxamide]: the results for the half-maximal inhibitory concentration (IC50) in test [1] and in test [3] were more than 20000 nM and 46.6 nM, respectively.
For the compound `CN1CC[C@@](O)(C#Cc2cccc(-c3cc4ccccc4c(C(N)=O)n3)c2)C1=O` [Example 40, 3-[3-[2-[(3R)-3-hydroxy-1-methyl-2-oxo-pyrrolidin-3-yl]ethynyl]phenyl] isoquinoline-1-carboxamide], the results for the concentration for half-maximal inhibition (IC50) in test [1] and in test [3] were more than 8000 nM and 7.8 nM, respectively.
For `CN1CC[C@@](O)(C#Cc2cccc(-c3ccc(N)c(C(N)=O)n3)c2)C1=O` [Example 63, 3-amino-6-[3-[2-[(3R)-3-hydroxy-1-methyl-2-oxo-pyrrolidin-3-yl]ethynyl]phenyl]pyridine-2-carboxamide], the IC50 was not below 20000 nM in test [1] and 10.7 nM in test [3].
For `COc1cc(C(N)=O)nc(-c2cccc(C#C[C@]3(O)CCN(C)C3=O)c2)c1` [Example 90, 6-[3-[2-[(3R)-3-hydroxy-1-methyl-2-oxo-pyrrolidin-3-yl]ethynyl]phenyl]-4-methoxy-pyridine-2-carboxamide], in that order: not below 20000 nM and 16.8 nM.
Take `CN1CC[C@@](O)(C#Cc2cccc(-c3cncc(C(N)=O)n3)c2)C1=O` [Example 154, 6-[3-[2-[(3R)-3-hydroxy-1-methyl-2-oxo-pyrrolidin-3-yl]ethynyl]phenyl]pyrazine-2-carboxamide]: the IC50 is more than 2000 nM in test [1] and 400 nM in test [3].
On to `COc1cc(C(N)=O)nc(-c2cc(C#C[C@]3(O)CCN(C)C3=O)c(F)cc2F)c1` [Example 191, 6[2,4-difluoro-5-[2-[(3R)-3-hydroxy-l-methy1-2-oxo-pyrrolidin-3-yl]ethynyl]phenyl]-4-methoxy-pyridine-2-carboxamide], for which, in test [2], the inhibition constant Ki was less than 0.05 nM.
In test [2], `CN1CC[C@@](O)(C#Cc2cccc(-c3nc(C(N)=O)c4c(n3)N(C)CC4)c2)C1=O` [Example 192, 2-[3-[2-[(3R)-3-hydroxy-1-methyl-2-oxo-pyrrolidin-3-yl]ethynyl]phenyl]-7-methyl-5,6-dihydropyrrolo[2,3-d] pyrimidine-4-carboxamide] yielded a Ki of 0.4 nM.
Still for that read-out and setting: under `CN1CC[C@@](O)(C#Cc2cccc(-c3nc(C(N)=O)c4cnn(C5CC5)c4n3)c2)C1=O` [Example 193, 1-cyclopropyl-6-[3-[2-[(3R)-3-hydroxy-1-methyl-2-oxo-pyrrolidin-3-yl]ethynyl]phenyl]pyrazolo[3,4-d] pyrimidine-4-carboxamide] stands less than 0.1 nM; under `CN1CC[C@@](O)(C#Cc2cc(F)c(F)c(-c3ccc(N)c(C(N)=O)n3)c2)C1=O` [Example 194, 3-amino-6-[2,3-difluoro-5-[2-[(3R)-3-hydroxy-l-methyl-2-oxo-pyrrolidin-3-yl]ethynyl]phenyl]pyridine-2-carboxamide], less than 0.05 nM; under `Cc1cc(-c2cccc(C#C[C@]3(O)CCN(C)C3=O)c2)nc(C(N)=O)c1O` [Example 195, 3-hydroxy-6-[3-[2-[(3R)-3-hydroxy-1-methyl-2-oxo-pyrrolidin-3-yl]ethynyl]phenyl]-4-methyl-pyridine-2-carboxamide], less than 0.05 nM.
Regarding `CN1CC[C@@](O)(C#Cc2cc(-c3cnc(N)c(C(N)=O)n3)c3ncsc3c2)C1=O` [Example 196, 3-amino-6-[6-[2-[(3R)-3-hydroxy-1-methyl-2-oxo-pyrrolidin-3-yl]ethynyl]-1,3-benzothiazol-4-yl]pyrazine-2-carboxamide], the Ki in test [2] was found to be 1 nM.
Consider `CN1CC[C@@](O)(C#Cc2cccc(-c3cc(CO)cc(C(N)=O)n3)c2)C1=O` [Example 197, 4-(hydroxymethyl)-6-[3-[2-[(3R)-3-hydroxy-1-methyl-2-oxo-pyrrolidin-3-yl]ethynyl]phenyl]pyridine-2-carboxamide], for which, in test [2], the Ki came out at 0.8 nM.
In turn, `COCc1cc(C(N)=O)nc(-c2cccc(C#C[C@]3(O)CCN(C)C3=O)c2)c1` [Example 198, 6-[3-[2-[(3R)-3-hydroxy-1-methyl-2-oxo-pyrrolidin-3-yl]ethynyl]phenyl]-4-(methoxymethyl)pyridine-2-carboxamide] had a Ki in test [2] of 0.5 nM.
As for `CCOc1cc(C(N)=O)nc(-c2cccc(C#C[C@]3(O)CCN(C)C3=O)c2)c1` [Example 199], the affinity in test [2] corresponds to a Ki of 0.4 nM.
In the case of `CN1CC[C@@](O)(C#Cc2cccc(-c3cc(N4CC(F)(F)C4)cc(C(N)=O)n3)c2)C1=O` [Example 200, 4-(3,3-difluoroazetidin-1-yl)-6-[3-[2-[(3R)-3-hydroxy-1-methyl-2-oxo-pyrrolidin-3-yl]ethynyl]phenyl]pyridine-2-carboxamide], the Ki in test [2] was less than 0.05 nM.
